Values of other authors, collected in article PMC10817097, “Caffeic Acid Phosphanium Derivatives: Potential Selective Antitumor, Antimicrobial and Antiprotozoal Agents” (International Journal of Molecular Sciences, 2024).

Assays:
Set-up in all cases: method as in PMID 36771693
[1] = test system: A2058 (human metastatic melanoma); conditions: A2058, standard; cited from earlier work
[2] = test system: MDA-MB-231 (human mammary gland adenocarcinoma); conditions: MDA-MB-231, standard; cited from earlier work
[3] = test system: MCF-10A cell line (human mammary gland epithelial cells); conditions: MCF-10A control cells, standard; cited from earlier work
[4] = test system: HeLa (human cervical adenocarcinoma); conditions: standard; cited from earlier work
[5] = test system: PANC-1 (human pancreatic adenocarcinoma); conditions: PANC-1, standard; cited from earlier work
[6] = test system: Jurkat (human leukemic T cell lymphoma); conditions: standard; cited from earlier work
[7] = test system: HCT116 (human colorectal adenocarcinoma); conditions: HCT116, standard; cited from earlier work
[8] = test system: MCF-7 (human breast adenocarcinoma); conditions: MCF-7, standard; cited from earlier work
[9] = test system: NIH 3T3 (murine fibroblasts); conditions: NIH 3T3 control cells, standard; cited from earlier work

Question: For `N.N.[Cl][Pt][Cl]` [CisPt, cisplatin], which IC50 [1] is on record?
Answer: 21.5 µM

Question: What about the IC50 [2] of the same compound?
Answer: 7.1 µM

Question: What about the IC50 [3] of the same compound?
Answer: 25.9 µM

Question: What about the IC50 [4] of the same compound?
Answer: 35.4 µM

Question: What about the IC50 [5] of the same compound?
Answer: 16.5 µM

Question: And the IC50 [6]?
Answer: 6.3 µM

Question: What about the IC50 [7] of the same compound?
Answer: 7.4 µM

Question: What about the IC50 [8] of the same compound?
Answer: 29.7 µM

Question: What about the IC50 [9] of the same compound?
Answer: 40.6 µM
